{"source": "patent US20160058787A1", "about": "(priority 2014, published 2016)", "details": "in vivo"}
{"substance": "sodium polystyrene sulfonate [NSPS]", "values": [{"measurement": "reduction of the toxicity and adverse effects of SPS", "value": "over 100 folds"}]}
